{"source": "patent US20180163250A1", "about": "“Screening Broths Comprising Esculatin Compounds for the Detection of Specific Microorganisms” (Neogen Corporation, priority 2016, published 2018)", "key": {"[1]": {"system": "phosphatase activity of methicillin resistant staphylococcus aureus", "assay": "Blackening after addition of ferric ammonium citrate (free CHE, phosphatase activity) in MRSA broth", "assay_type": "cell-based", "conditions": "for blackening after the addition of ferric ammonium citrate indicating the presence of free 3,4-cyclohexenoesculatin: 5 minutes at ambient temperature after FAC", "protocol": "(§1) CHE-phosphate, and 3,4-cyclohexenoesculatin diphosphate were dissolved at 200 mg/ml in a 50:50 mixture of dimethylformamide and water. 5-bromo-4-chloroindoxyl phosphate was dissolved at 200 mg/ml in a 50:50 mixture of ethanol and water. The mixtures of compounds were added individually to a MRSA broth (LAB588; Lab M limited) pre-dispensed to 10 ml volumes, after supplementation with cefoxitin selective agent, as 25 μL additions from the prepared stock solutions.\n(§2) A 0.5 Macfarlane standard suspension of methicillin resistant staphylococcus aureus strains were prepared from 18-24 h cultures grown in tryptic soy broth (LAB004; Lab M Limited) at 37° C. These were diluted and added to the MRSA broth samples in an amount sufficient to inoculate each sample with 100-1000 colony forming units (cfu). Target concentration was achieved by diluting a culture to a target level and inoculating sets of tubes at different inoculum dilutions so as to achieve the target range. The actual quantity inoculated was confirmed by plating 50 μl of the dilution onto Tryptone soy agar (LAB011) and incubating the plates for 18-24 h at 37° C. and counting the resulting colonies. This information was used to determine which tubes had been inoculated within the target dosing range.\n(§3) The broth is designed to selectively indicate a positive presence of MRSA by a yellow color, or a presumptive positive presence of MRSA by an orange color (Table 1). To the CHE-phosphate and 3,4-cyclohexenoesculatin diphosphate was added 50 μL of a 250/mg/ml stock solution of Ferric ammonium citrate and samples were allowed to incubate at ambient temperature for 5 minutes."}, "[2]": {"system": "methicillin resistant staphylococcus aureus", "assay": "CHE-phosphate in MRSA broth before and after FAC: MRSA strains", "assay_type": "cell-based", "conditions": "for Broth color after addition of FAC: 5 minutes at ambient temperature after FAC; for Broth color before addition FAC: LAB588, 37° C. for 22 hours", "excerpt": "(§4) Scheme 2 above provides a pictorial representation of CHE-phosphate discriminating between methicillin resistant staphylococcus aureus and methicillin resistant coagulase negative Staphylococcus. The single phosphate group from CHE-phosphate is removed by the phosphatase activity of methicillin resistant staphylococcus aureus, but not by the coagulase negative staphylococcus, which lack this phosphatase activity. Addition of ferric ammonium citrate produces the dark, insoluble iron-3,4-cyclohexenoesculatin complex indicating the presence of methicillin resistant staphylococcus aureus. The dark complex is not formed between ferric ammonium citrate and CHE-phosphate, and therefore indicates the absence of phosphatase activity. Accordingly, a lack of a dark precipitate indicates the absence of methicillin resistant staphylococcus aureus.\n(§5) A panel of MRSA strains and coagulase negative staphylococci (clinical isolates) were cultured and tested in MRSA broth with CHE-phosphate using the same methodology as Example 2 CHE-phosphate was Dissolved at 200 mg/ml in 50:50 mixture of dimethylformamide and water. LAB588 (MRSA broth, Lab M limited) pre-dispensed to 10 ml volumes was supplemented with 25 μL aliquots from the prepared stock solution. A 0.5 Macfarlane standard suspension of methicillin resistant staphylococcus aureus and coagulase negative staphylococci strains were prepared from 18-24 h cultures grown in tryptic soy broth (LAB004, Lab M Limited) at 37° C. These were diluted to an amount sufficient to inoculate each sample with 100-1000 cfu. Samples were then incubated at 37° C. for 22 hours and observed for growth and color change. 50 μL aliquots of a 250 mg/ml stock solution of Ferric ammonium citrate (FAC) was then added to each sample and allowed to incubate at ambient temperature for 5 minutes. The samples were then observed for blackening indicating phosphatase activity by the presence of free 3,4-cyclohexenoesculatin (Table 3)."}, "[3]": {"system": "methicillin resistant staphylococcus aureus strains", "assay": "Growth and initial color change in MRSA screening broth (LAB588) containing the substrate", "assay_type": "cell-based", "conditions": "for Initial color change indicating the presence of MRSA: LAB588 broth with cefoxitin, 100-1000 cfu", "protocol": "as §1, §2, §3"}, "[4]": {"system": "methicillin resistant coagulase negative staphylococcus (clinical isolates)", "assay": "CHE-phosphate in MRSA broth before and after FAC: coagulase negative staphylococci", "assay_type": "cell-based", "conditions": "for Broth color after addition of FAC: 5 minutes at ambient temperature after FAC; for Broth color before addition FAC: LAB588, 37° C. for 22 hours", "excerpt": "as §4, §5"}, "[5]": {"system": "MRSA phosphatase activity", "assay": "Confirmatory enzymatic test for MRSA phosphatase activity in the MRSA screening broth (initial investigation)", "assay_type": "cell-based, staphylococcus aureus", "conditions": "substrate and ferric ammonium citrate added at end of incubation, or substrate included before incubation", "excerpt": "MRSA detection broths based on the principle of mannitol and trehalose utilization and cefoxitin were designed to be a selective system for high throughput screening of clinical MRSA samples. The broths allow high volume screening of the majority of patient samples by a low cost method with confirmation of the few presumptive positive samples by rapid methods. The broths achieved good performance relative to Mannitol salts broth enrichment and/or direct plating (>98% sensitivity and >96 selectivity). In order to further enhance the selectivity of this broth system, the use of a confirmatory enzymatic test targeted at the MRSA phosphatase activity was investigated. […] Fluorogenic phosphatase substrate, although giving a confirming reaction, suffered from the disadvantage of nonspecific fluorescence in the broth probably due to compound stability, and also necessitated the use of non-auto fluorescent glass or plastic tubes. […]"}}, "data": [{"smiles": "O=c1oc2cc(O)c(OP(=O)(O)O)cc2c2c1CCCC2", "note": "[CHE-phosphate, sodium 3,4-cyclohexenoesculatin-6-phosphate (sodium 3-hydroxy-6-oxo-7,8,9,10-tetrahydro-6H-benzo[c]chromen-2-yl phosphate)]", "values": [{"measurement": "blackening after the addition of ferric ammonium citrate indicating the presence of free 3,4-cyclohexenoesculatin", "setting": "[1]; MRSA 3", "result": "Blackening"}, {"measurement": "blackening after the addition of ferric ammonium citrate indicating the presence of free 3,4-cyclohexenoesculatin", "setting": "[1]; MRSA 15", "result": "Blackening"}, {"measurement": "blackening after the addition of ferric ammonium citrate indicating the presence of free 3,4-cyclohexenoesculatin", "setting": "[1]; MRSA 15A (clinical isolate)", "result": "Blackening"}, {"measurement": "blackening after the addition of ferric ammonium citrate indicating the presence of free 3,4-cyclohexenoesculatin", "setting": "[1]; MRSA 15B (clinical isolate)", "result": "Blackening"}, {"measurement": "blackening after the addition of ferric ammonium citrate indicating the presence of free 3,4-cyclohexenoesculatin", "setting": "[1]; MRSA 15 C (clinical isolate)", "result": "Blackening"}, {"measurement": "blackening after the addition of ferric ammonium citrate indicating the presence of free 3,4-cyclohexenoesculatin", "setting": "[1]; MRSA 16A (clinical isolate)", "result": "Blackening"}, {"measurement": "blackening after the addition of ferric ammonium citrate indicating the presence of free 3,4-cyclohexenoesculatin", "setting": "[1]; MRSA 16B (clinical isolate)", "result": "Blackening"}, {"measurement": "blackening after the addition of ferric ammonium citrate indicating the presence of free 3,4-cyclohexenoesculatin", "setting": "[1]; MRSA 16 C (clinical isolate)", "result": "Blackening"}, {"measurement": "blackening after the addition of ferric ammonium citrate indicating the presence of free 3,4-cyclohexenoesculatin", "setting": "[1]; S. aureus NCTC 12493", "result": "Blackening"}, {"measurement": "Specificity of enzymatic phosphatase activity for the substrate", "setting": "[1]; summary of Table 2", "result": "specific"}, {"measurement": "Broth color after addition of FAC", "setting": "[2]; MRSA 3", "result": "Black"}, {"measurement": "Broth color before addition FAC", "setting": "[2]; MRSA 3", "result": "Yellow"}, {"measurement": "Broth color after addition of FAC", "setting": "[2]; MRSA 15", "result": "Black"}, {"measurement": "Broth color before addition FAC", "setting": "[2]; MRSA 15", "result": "Yellow"}, {"measurement": "Broth color after addition of FAC", "setting": "[2]; MRSA 16A", "result": "Black"}, {"measurement": "Broth color before addition FAC", "setting": "[2]; MRSA 16A", "result": "Orange"}, {"measurement": "Broth color after addition of FAC", "setting": "[2]; MRSA 16B", "result": "Black"}, {"measurement": "Broth color before addition FAC", "setting": "[2]; MRSA 16B", "result": "Orange"}, {"measurement": "Broth color after addition of FAC", "setting": "[2]; MRSA 75", "result": "Black"}, {"measurement": "Broth color before addition FAC", "setting": "[2]; MRSA 75", "result": "Orange"}, {"measurement": "Broth color after addition of FAC", "setting": "[2]; S. aureus NCTC 12493", "result": "Black"}, {"measurement": "Broth color before addition FAC", "setting": "[2]; S. aureus NCTC 12493", "result": "Yellow"}, {"measurement": "Specificity for the phosphatase enzyme of MRSA versus methicillin resistant coagulase negative staphylococci", "setting": "[2]; summary of Table 3", "result": "specific for the phosphatase enzyme of MRSA"}, {"measurement": "Initial color change indicating the presence of MRSA", "setting": "[3]; MRSA 3", "result": "Growth (yellow)"}, {"measurement": "Initial color change indicating the presence of MRSA", "setting": "[3]; MRSA 15", "result": "Growth (yellow)"}, {"measurement": "Initial color change indicating the presence of MRSA", "setting": "[3]; MRSA 15A (clinical isolate)", "result": "Growth (yellow)"}, {"measurement": "Initial color change indicating the presence of MRSA", "setting": "[3]; MRSA 15B (clinical isolate)", "result": "Growth (yellow)"}, {"measurement": "Initial color change indicating the presence of MRSA", "setting": "[3]; MRSA 15C (clinical isolate)", "result": "Growth (orange)"}, {"measurement": "Initial color change indicating the presence of MRSA", "setting": "[3]; MRSA 16A (clinical isolate)", "result": "Growth (orange)"}, {"measurement": "Initial color change indicating the presence of MRSA", "setting": "[3]; MRSA 16B (clinical isolate)", "result": "Growth (orange)"}, {"measurement": "Initial color change indicating the presence of MRSA", "setting": "[3]; MRSA 16C (clinical isolate)", "result": "Growth (orange)"}, {"measurement": "Inhibition of the growth of MRSA", "setting": "[3]; MRSA broth LAB588, summary of Table 1", "result": "not inhibitory"}, {"measurement": "Initial color change indicating the presence of MRSA", "setting": "[3]; S. aureus NCTC 12493", "result": "Growth (yellow)"}, {"measurement": "Broth color after addition of FAC", "setting": "[4]; CNS 22", "result": "Orange"}, {"measurement": "Broth color before addition FAC", "setting": "[4]; CNS 22", "result": "Orange"}, {"measurement": "Broth color after addition of FAC", "setting": "[4]; CNS 28", "result": "yellow"}, {"measurement": "Broth color before addition FAC", "setting": "[4]; CNS 28", "result": "yellow"}, {"measurement": "Broth color after addition of FAC", "setting": "[4]; CNS 33", "result": "orange"}, {"measurement": "Broth color before addition FAC", "setting": "[4]; CNS 33", "result": "orange"}, {"measurement": "Blackening reaction in the MRSA screening broth", "setting": "[5]", "result": "readily observable blackening reaction"}]}]}
